Some test systems named below: HCT-15 colon; HL-60(TB) leukemia; HOP-92 NSCLC; IGROV1 ovarian; KM12 colon; NCI/ADR-RES ovarian; OVCAR-5 ovarian; SW-620 colon; T-47D breast; UO-31 renal.
Common to all, as to assay: DTP human tumour cell line panel, 48 h

Several values for one entry are separate records, joined by “and”; a condition that tells them apart may be missing. Identical values can stand only once.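 Values below derive from 48-hour exposures of cells grown in 96-well plates, with endpoints linearly interpolated between the two concentrations bracketing the appropriate inhibition level. The concentration for 50% growth inhibition is given as GI50. TGI denotes the concentration required for complete inhibition of growth.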

These results are taken from PubChem BioAssay (NCI).

For orientation: GI50 means the concentration giving 50% growth inhibition. The TGI is the concentration giving total growth inhibition. Read a low TGI as more potent growth arrest. Consider `Clc1ccc(OCc2nnc3n2N=C(c2ccc(Cl)cc2Cl)CS3)cc1`, for which the GI50 is 13.9 µM with HCT-15 colon; 31.8 µM in the experiment on HL-60(TB) leukemia; 14.3 µM in the experiment on HOP-92 NSCLC; 19.8 µM in the experiment with IGROV1 ovarian; 20.9 µM in the experiment with KM12 colon; 16.2 µM with NCI/ADR-RES ovarian. The GI50 in the experiment with OVCAR-5 ovarian was 22.1 µM; in the experiment on SW-620 colon, 31.6 µM; in the experiment on T-47D breast, 38.5 µM; with UO-31 renal it was 14.8 µM. The TGI in the experiment with HCT-15 colon was 37.1 µM; in the experiment with HL-60(TB) leukemia, over 100 µM; with HOP-92 NSCLC it was 41.2 µM; in the experiment with IGROV1 ovarian, 50.8 µM; with KM12 colon, 54.4 µM; with NCI/ADR-RES ovarian, 37.9 µM. Further, the total growth inhibition concentration (TGI) with OVCAR-5 ovarian was 81 µM; with SW-620 colon it was over 100 µM; in the experiment with T-47D breast it was over 100 µM; in the experiment with UO-31 renal it was 34.5 µM.
On to `CC(=O)Nc1ccc(COC(O)CN2CCCCC2)cc1[N+](=O)[O-]` (stereo not given), for which the concentration for total growth inhibition (TGI) in the experiment on HCT-15 colon, with HL-60(TB) leukemia, with HOP-92 NSCLC, in the experiment with IGROV1 ovarian, with KM12 colon and with NCI/ADR-RES ovarian was over 100 µM each time. The TGI with OVCAR-5 ovarian, in the experiment with SW-620 colon, in the experiment with T-47D breast and in the experiment with UO-31 renal was over 100 µM in each case.
As to `CC(=O)OC1CC2C3CCC4C[C@@H](NC(=O)C=C(C)C)CC[C@]4(C)C3CC[C@]2(C)[C@H]1C(C)N(C)C` (stereo not given in full), the GI50 was 0.721 µM in the experiment with HCT-15 colon; 2.23 µM in the experiment with HL-60(TB) leukemia; 0.89 µM in the experiment with HOP-92 NSCLC; 1.28 µM in the experiment with IGROV1 ovarian; 2.55 µM in the experiment on KM12 colon; 4.13 µM in the experiment with NCI/ADR-RES ovarian. The GI50 in the experiment with OVCAR-5 ovarian is 3.46 µM; in the experiment on SW-620 colon, 1.65 µM; with T-47D breast it was 1.55 µM; in the experiment on UO-31 renal, 0.949 µM. Besides, the TGI in the experiment with HCT-15 colon was 2.75 µM; in the experiment on HL-60(TB) leukemia, 5.46 µM; in the experiment with HOP-92 NSCLC, 4.06 µM; in the experiment with IGROV1 ovarian, 6.5 µM; in the experiment on KM12 colon, 10.4 µM; in the experiment on NCI/ADR-RES ovarian it was 16.5 µM. The TGI with OVCAR-5 ovarian worked out at 10.4 µM; in the experiment with SW-620 colon, 3.47 µM; in the experiment with T-47D breast, 6.08 µM; in the experiment on UO-31 renal, 2.95 µM.
In the case of `c1ccc2cc(C[n+]3ccn(CCCCCCCCCCn4cc[n+](Cc5ccc6ccccc6c5)c4)c3)ccc2c1`, the GI50 with HCT-15 colon was 3.76 µM; with HL-60(TB) leukemia, 1.25 µM; in the experiment on HOP-92 NSCLC, 0.396 µM; in the experiment with IGROV1 ovarian, 1.11 µM; in the experiment on KM12 colon, 0.727 µM; in the experiment with NCI/ADR-RES ovarian it was 29.4 µM. Besides, the GI50 is 1.87 µM in the experiment on OVCAR-5 ovarian, 1.57 µM in the experiment with SW-620 colon, 0.491 µM in the experiment with T-47D breast and 6.14 µM with UO-31 renal. Further, the concentration for total growth inhibition (TGI) with HCT-15 colon is over 100 µM; in the experiment with HL-60(TB) leukemia, 2.97 µM; with HOP-92 NSCLC, 2.96 µM; with IGROV1 ovarian it was 3.08 µM; in the experiment with KM12 colon, 2.73 µM; with NCI/ADR-RES ovarian, over 100 µM. The TGI in the experiment with OVCAR-5 ovarian was 9.48 µM; in the experiment on SW-620 colon, 11.2 µM; with T-47D breast, 4.74 µM; with UO-31 renal, over 100 µM.
Take `O=C1c2cccc(NCCN=Cc3ccccc3O)c2C(=O)c2c(NCCN=Cc3ccccc3O)cccc21`: the GI50 was 2.23 µM in the experiment on HCT-15 colon; 1.09 µM with HL-60(TB) leukemia; 0.584 µM with HOP-92 NSCLC; 0.237 µM in the experiment on IGROV1 ovarian; 0.353 µM with KM12 colon; 11.5 µM with NCI/ADR-RES ovarian. The GI50 in the experiment with OVCAR-5 ovarian is 1.41 µM; in the experiment on SW-620 colon, 0.258 µM; with T-47D breast, 0.684 µM; in the experiment on UO-31 renal it was 0.596 µM. Also, the TGI came out at 12 µM in the experiment with HCT-15 colon; 3.4 µM in the experiment with HL-60(TB) leukemia; 2.49 µM with HOP-92 NSCLC; 0.504 µM with IGROV1 ovarian; 1.44 µM in the experiment on KM12 colon; 97.1 µM with NCI/ADR-RES ovarian. The TGI in the experiment on OVCAR-5 ovarian is 5.43 µM; in the experiment with SW-620 colon, 1.38 µM; with T-47D breast, 4.46 µM; with UO-31 renal it was 3.06 µM.
For `O=c1ssc(Cl)c1Cl`, the TGI was over 10 µM in the experiment with HCT-15 colon; 6.04 µM in the experiment on HL-60(TB) leukemia; over 10 µM in the experiment with HOP-92 NSCLC; over 10 µM in the experiment with IGROV1 ovarian; over 10 µM in the experiment with KM12 colon; over 10 µM in the experiment with NCI/ADR-RES ovarian. Further, the concentration for total growth inhibition (TGI) in the experiment on OVCAR-5 ovarian is over 10 µM; with SW-620 colon, over 8.11 µM; in the experiment on T-47D breast, over 10 µM; in the experiment on UO-31 renal, over 6.86 µM.
As for `COc1cc(C(=O)Nc2cc(OC)c3ccn(C)c3c2)cc2c1C[C@]1(C)CC[C@@H](O)C(C)(C)[C@H]1O2`, the GI50 in the experiment on HCT-15 colon was 1.05 µM; with HL-60(TB) leukemia, 0.074 µM; with HOP-92 NSCLC it was 0.593 µM; with IGROV1 ovarian it was 1.7 µM; in the experiment on KM12 colon, 2.08 µM; with NCI/ADR-RES ovarian, 2.34 µM. Further, the GI50 in the experiment with OVCAR-5 ovarian is 4.14 µM; in the experiment on SW-620 colon, 1.04 µM; in the experiment with T-47D breast, 1.8 µM; with UO-31 renal it was 0.0988 µM. The TGI in the experiment with HCT-15 colon was over 100 µM; in the experiment on HL-60(TB) leukemia, 3.43 µM; in the experiment on HOP-92 NSCLC, 6.03 µM; in the experiment on IGROV1 ovarian, over 100 µM; in the experiment with KM12 colon, over 100 µM; in the experiment with NCI/ADR-RES ovarian it was 14.7 µM. For the same compound, the TGI was over 100 µM in the experiment with OVCAR-5 ovarian, 10 µM in the experiment with SW-620 colon, 14.8 µM with T-47D breast and 1.17 µM in the experiment with UO-31 renal.
In the case of `COc1ccc(/C=C/C(=O)c2ccc(OC)c(OC)c2)cc1O`, the GI50 in the experiment on HCT-15 colon is 3.41 µM; with HL-60(TB) leukemia, 13.9 µM; with HOP-92 NSCLC, 2.02 µM; with IGROV1 ovarian it was 7.03 µM; in the experiment on KM12 colon it was 3.57 µM; in the experiment with NCI/ADR-RES ovarian, 3.88 µM. The GI50 is 4.94 µM with OVCAR-5 ovarian, 3.09 µM in the experiment on SW-620 colon, 5.74 µM in the experiment on T-47D breast and 5.83 µM in the experiment on UO-31 renal. Moreover, the total growth inhibition concentration (TGI) stood at 32.9 µM in the experiment with HCT-15 colon; 52.2 µM with HL-60(TB) leukemia; 13.6 µM in the experiment with HOP-92 NSCLC; 39.9 µM with IGROV1 ovarian; 13.3 µM in the experiment with KM12 colon; 49.1 µM in the experiment on NCI/ADR-RES ovarian. Further, the total growth inhibition concentration (TGI) in the experiment on OVCAR-5 ovarian came out at 28.9 µM; in the experiment with SW-620 colon, 12.8 µM; in the experiment with T-47D breast, 25.5 µM; in the experiment on UO-31 renal, 19.2 µM.
`CN(C)c1ccc(/C=C/C2=[N+](C)c3ccccc3C2(C)C)cc1`: the GI50 was 2.66 µM in the experiment with HCT-15 colon; 0.231 µM with HL-60(TB) leukemia; 1.8 µM in the experiment with HOP-92 NSCLC; 2.19 µM in the experiment with IGROV1 ovarian; 0.328 µM with KM12 colon; 13.7 µM in the experiment on NCI/ADR-RES ovarian. Besides, the GI50 in the experiment with OVCAR-5 ovarian was 2.22 µM; in the experiment with SW-620 colon, 0.379 µM; in the experiment with T-47D breast, 0.401 µM; with UO-31 renal, 2.61 µM. For the same compound, the concentration for total growth inhibition (TGI) in the experiment on HCT-15 colon was 18.6 µM; with HL-60(TB) leukemia, 0.801 µM; in the experiment with HOP-92 NSCLC, 9.03 µM; with IGROV1 ovarian it was over 100 µM; in the experiment on KM12 colon it was 5.85 µM; in the experiment on NCI/ADR-RES ovarian, over 100 µM. In addition, the TGI was 22.4 µM with OVCAR-5 ovarian, 17.8 µM with SW-620 colon, 9.29 µM in the experiment on T-47D breast and 83.3 µM in the experiment on UO-31 renal.
Take `COc1ccc(C2C(C)C(=O)C(C)C(c3ccc(OC)cc3)N2N=O)cc1` (stereo not given): the GI50 is over 750 µM in the experiment on HCT-15 colon; over 750 µM with HL-60(TB) leukemia; over 47.9 µM with HOP-92 NSCLC; > 90.8 µM and 138 µM with IGROV1 ovarian; over 750 µM in the experiment with SW-620 colon. The total growth inhibition concentration (TGI) with HCT-15 colon was over 1000 µM; in the experiment with HL-60(TB) leukemia, over 1000 µM; in the experiment on HOP-92 NSCLC it was > 80.9 µM and 190 µM and 149 µM; with IGROV1 ovarian, 391 µM and 656 µM; in the experiment with KM12 colon, over 1000 µM; with NCI/ADR-RES ovarian it was over 1000 µM. Besides, the total growth inhibition concentration (TGI) in the experiment on OVCAR-5 ovarian is over 977 µM; with SW-620 colon, over 1000 µM; in the experiment with T-47D breast, 713 µM; with UO-31 renal, over 1000 µM.
For the compound `O=c1oc2ccc(Br)cc2c(=O)n1-c1ccc(I)cc1F`, the GI50 in the experiment with HCT-15 colon was 0.4 µM; in the experiment with HL-60(TB) leukemia it was 0.375 µM; with HOP-92 NSCLC, 0.164 µM; in the experiment on IGROV1 ovarian, 0.378 µM; in the experiment with KM12 colon, 1.66 µM; with NCI/ADR-RES ovarian, 0.355 µM. Moreover, the GI50 in the experiment on OVCAR-5 ovarian is 3.59 µM; in the experiment on SW-620 colon it was 0.479 µM; in the experiment on T-47D breast, 0.279 µM; in the experiment with UO-31 renal, 0.24 µM. Moreover, the TGI in the experiment with HCT-15 colon was 5.96 µM; with HL-60(TB) leukemia, 1.99 µM; in the experiment on HOP-92 NSCLC, 0.492 µM; in the experiment with IGROV1 ovarian, 18.9 µM; in the experiment on KM12 colon, 4.37 µM; with NCI/ADR-RES ovarian, 2.32 µM. The TGI in the experiment with OVCAR-5 ovarian is over 100 µM; with SW-620 colon it was 10.5 µM; with T-47D breast it was 1.52 µM; in the experiment with UO-31 renal it was 1.22 µM.
